Laboratory results as given in paper PMC9851200, “Multiparameter phenotypic screening for endogenous TFEB and TFE3 translocation identifies novel chemical series modulating lysosome function” (Autophagy, 2022).

Columns and labels:
Type in all cases: binding
[1] = target: T1, kinases (KINOMEscan panel) (Homo sapiens, UniProt Q9NRP7); details: STK36; NEW KINOMEscan
T1 sequence (Q9NRP7 1-1315): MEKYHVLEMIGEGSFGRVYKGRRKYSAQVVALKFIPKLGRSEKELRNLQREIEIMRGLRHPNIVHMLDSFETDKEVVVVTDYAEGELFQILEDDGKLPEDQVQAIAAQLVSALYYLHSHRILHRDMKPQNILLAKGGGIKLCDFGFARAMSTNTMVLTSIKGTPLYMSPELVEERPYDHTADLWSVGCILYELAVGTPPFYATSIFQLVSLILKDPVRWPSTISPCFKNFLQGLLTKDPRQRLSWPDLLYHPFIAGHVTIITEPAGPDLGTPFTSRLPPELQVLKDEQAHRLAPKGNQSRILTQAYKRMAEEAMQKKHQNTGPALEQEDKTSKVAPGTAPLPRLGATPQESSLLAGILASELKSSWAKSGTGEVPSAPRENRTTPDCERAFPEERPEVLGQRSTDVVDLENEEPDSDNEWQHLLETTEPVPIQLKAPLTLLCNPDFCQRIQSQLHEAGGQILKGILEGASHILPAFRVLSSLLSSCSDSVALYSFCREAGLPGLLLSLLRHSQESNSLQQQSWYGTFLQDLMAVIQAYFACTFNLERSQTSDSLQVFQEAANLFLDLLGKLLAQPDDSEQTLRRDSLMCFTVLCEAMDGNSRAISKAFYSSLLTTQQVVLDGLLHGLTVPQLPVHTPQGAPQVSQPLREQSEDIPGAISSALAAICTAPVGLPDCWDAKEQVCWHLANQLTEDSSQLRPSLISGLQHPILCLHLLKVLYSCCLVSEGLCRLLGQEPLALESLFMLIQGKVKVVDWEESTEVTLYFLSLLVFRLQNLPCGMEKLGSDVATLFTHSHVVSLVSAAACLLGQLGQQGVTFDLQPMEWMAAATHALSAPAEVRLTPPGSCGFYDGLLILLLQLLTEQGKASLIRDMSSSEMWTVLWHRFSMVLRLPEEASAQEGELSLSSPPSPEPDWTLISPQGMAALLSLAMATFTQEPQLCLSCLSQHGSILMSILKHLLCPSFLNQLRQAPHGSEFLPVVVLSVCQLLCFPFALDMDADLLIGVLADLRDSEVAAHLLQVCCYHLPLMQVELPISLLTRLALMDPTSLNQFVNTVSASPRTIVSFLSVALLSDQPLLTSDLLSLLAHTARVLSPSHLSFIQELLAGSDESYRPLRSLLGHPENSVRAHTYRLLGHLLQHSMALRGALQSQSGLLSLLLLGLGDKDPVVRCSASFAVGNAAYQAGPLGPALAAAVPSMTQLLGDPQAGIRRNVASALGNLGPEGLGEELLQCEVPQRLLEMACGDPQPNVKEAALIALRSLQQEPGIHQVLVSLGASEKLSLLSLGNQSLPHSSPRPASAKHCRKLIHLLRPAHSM

[2] = target: T2, kinases (KINOMEscan panel) (Homo sapiens, UniProt P57078); details: RIPK4; NEW KINOMEscan
T2 sequence (P57078 1-832): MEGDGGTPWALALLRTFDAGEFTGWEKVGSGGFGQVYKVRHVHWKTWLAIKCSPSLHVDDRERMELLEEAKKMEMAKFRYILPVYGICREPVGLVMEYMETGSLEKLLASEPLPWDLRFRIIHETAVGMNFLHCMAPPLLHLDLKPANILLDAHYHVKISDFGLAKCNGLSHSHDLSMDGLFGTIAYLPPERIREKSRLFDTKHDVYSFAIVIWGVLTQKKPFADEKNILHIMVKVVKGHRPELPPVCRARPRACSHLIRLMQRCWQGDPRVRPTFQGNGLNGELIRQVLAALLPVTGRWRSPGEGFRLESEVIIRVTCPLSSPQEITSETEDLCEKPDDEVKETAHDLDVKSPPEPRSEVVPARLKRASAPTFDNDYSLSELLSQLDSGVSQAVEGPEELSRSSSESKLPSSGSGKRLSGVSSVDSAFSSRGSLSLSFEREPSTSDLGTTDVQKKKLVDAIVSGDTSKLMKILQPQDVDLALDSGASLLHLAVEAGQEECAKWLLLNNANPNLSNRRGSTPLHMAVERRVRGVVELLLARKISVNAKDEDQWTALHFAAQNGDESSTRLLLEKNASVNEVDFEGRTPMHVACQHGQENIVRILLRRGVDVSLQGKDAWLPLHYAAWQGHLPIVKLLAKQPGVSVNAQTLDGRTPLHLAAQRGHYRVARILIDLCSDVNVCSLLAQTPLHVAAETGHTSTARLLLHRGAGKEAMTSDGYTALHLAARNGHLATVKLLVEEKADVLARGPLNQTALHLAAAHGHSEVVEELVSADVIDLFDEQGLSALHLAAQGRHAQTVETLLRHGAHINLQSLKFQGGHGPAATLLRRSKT

[3] = target: T3, kinases (KINOMEscan panel) (Homo sapiens, UniProt Q9NRH2); details: kinase SNRK; NEW KINOMEscan
T3 sequence (Q9NRH2 1-765): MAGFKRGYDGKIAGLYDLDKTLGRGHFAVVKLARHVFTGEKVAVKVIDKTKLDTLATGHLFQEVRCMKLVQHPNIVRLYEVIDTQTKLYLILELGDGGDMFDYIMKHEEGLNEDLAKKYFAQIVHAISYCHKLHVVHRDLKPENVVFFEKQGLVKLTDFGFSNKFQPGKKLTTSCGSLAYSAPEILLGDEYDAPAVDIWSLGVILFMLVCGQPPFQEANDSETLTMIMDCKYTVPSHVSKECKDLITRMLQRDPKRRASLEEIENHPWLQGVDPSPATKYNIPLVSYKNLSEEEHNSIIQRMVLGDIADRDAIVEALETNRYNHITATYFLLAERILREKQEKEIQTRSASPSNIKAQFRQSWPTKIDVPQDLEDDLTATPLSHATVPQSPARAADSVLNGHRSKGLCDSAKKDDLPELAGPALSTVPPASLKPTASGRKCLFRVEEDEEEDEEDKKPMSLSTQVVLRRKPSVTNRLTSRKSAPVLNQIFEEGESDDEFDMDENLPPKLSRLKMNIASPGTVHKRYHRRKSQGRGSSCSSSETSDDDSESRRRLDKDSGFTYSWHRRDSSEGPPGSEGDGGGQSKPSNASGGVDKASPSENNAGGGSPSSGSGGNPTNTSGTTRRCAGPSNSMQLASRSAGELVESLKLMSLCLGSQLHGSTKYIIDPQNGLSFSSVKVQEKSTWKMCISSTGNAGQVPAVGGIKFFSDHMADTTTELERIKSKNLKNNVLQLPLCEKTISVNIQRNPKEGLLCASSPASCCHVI

[4] = target: kinases (KINOMEscan panel) (Homo sapiens, UniProt P00533, L858R/T790M); details: NEW KINOMEscan
kinases (KINOMEscan panel) (Homo sapiens, UniProt P00533, L858R/T790M), sequence (P00533 25-1210 T790M/L858R): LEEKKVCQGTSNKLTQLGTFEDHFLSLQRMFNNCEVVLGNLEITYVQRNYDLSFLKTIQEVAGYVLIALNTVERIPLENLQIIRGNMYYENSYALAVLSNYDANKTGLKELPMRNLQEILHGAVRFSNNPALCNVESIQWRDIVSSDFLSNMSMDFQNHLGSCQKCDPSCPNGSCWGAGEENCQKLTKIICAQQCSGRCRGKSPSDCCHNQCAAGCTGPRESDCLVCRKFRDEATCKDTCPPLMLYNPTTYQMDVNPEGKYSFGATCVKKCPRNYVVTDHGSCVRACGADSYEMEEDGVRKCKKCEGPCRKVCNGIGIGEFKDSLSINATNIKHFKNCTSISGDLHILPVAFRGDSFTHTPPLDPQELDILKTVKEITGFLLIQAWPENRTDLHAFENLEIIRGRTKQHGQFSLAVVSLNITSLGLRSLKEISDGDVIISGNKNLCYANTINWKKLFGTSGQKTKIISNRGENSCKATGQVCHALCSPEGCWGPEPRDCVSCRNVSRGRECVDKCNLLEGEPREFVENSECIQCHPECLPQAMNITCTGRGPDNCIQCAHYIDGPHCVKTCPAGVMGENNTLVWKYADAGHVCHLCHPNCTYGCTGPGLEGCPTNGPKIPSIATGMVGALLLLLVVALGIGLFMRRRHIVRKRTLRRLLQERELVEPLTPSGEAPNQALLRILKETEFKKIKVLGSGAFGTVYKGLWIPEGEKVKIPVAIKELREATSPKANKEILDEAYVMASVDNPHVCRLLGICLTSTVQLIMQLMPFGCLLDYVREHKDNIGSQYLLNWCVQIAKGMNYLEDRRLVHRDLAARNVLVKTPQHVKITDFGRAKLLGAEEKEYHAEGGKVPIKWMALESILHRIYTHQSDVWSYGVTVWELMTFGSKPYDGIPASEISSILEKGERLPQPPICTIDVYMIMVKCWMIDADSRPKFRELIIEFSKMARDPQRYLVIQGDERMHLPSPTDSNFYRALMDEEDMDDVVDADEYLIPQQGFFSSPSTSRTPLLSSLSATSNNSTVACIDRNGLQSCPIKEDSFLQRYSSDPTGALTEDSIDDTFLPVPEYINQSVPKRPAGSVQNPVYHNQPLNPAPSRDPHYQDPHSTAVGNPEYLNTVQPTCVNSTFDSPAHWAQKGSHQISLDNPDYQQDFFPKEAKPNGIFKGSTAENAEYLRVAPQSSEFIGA

SMILES | KINOMEscan STK36 [1] | KINOMEscan RIPK4 [2] | KINOMEscan SNRK [3] | KINOMEscan EGFR(L858R,T790M) [4]
Cc1cccc(-c2nc(N(C)c3ccc4ncsc4c3)c3ccccc3n2)n1 [NK-161] | 7 | 0 | 7 | 10
Cc1cccc(-c2nc(Nc3ccc4nn(C)cc4c3)c3ccccc3n2)n1 [NK167] | 0 | 0 | 6 | 0
